Data reported in patent US20220273608A1, “Methods for Treating Bone-Related Disorders” (University of Maryland, Baltimore, priority 2016, published 2022).
“Also recorded” adds a separate entry of the source. Like-named read-outs stand apart in the source and are kept apart here.

Assays:
Ocy454 cells [1] = assay: ROS imaging (CellROX) of Ocy454 cells; type: cell-based, mouse; conditions: for ROS production: no FSS, CellROX
Procedure: (§1) Cells in culture were exposed to fluid flow using a custom FSS device (63). Cell media was removed and cells were rinsed in HEPES-buffered Ringer solution containing 140 mM NaCl, 4 mM KCl, 1 mM MgSO4, 5 mM NaHCO3, 10 mM glucose, 1.8 mM CaCl2 and 10 mM HEPES (pH 7.3). Ringer solution was also used as fluid flow buffer. For Calcium-free conditions, HEPES-buffered Manganese Ringer solution, containing 140 mM NaCl, 4 mM KCl, 1 mM MgSO4, 5 mM NaHCO3, 10 mM glucose, 2 mM MnCI and 10 mM HEPES (pH 7.3), was used, and cells were loaded with BATPA AM ester (10 μM, 30 min). […] For Ca^2+ imaging, cells were loaded with Fluo-4 AM ester (ThermoFisher, 5 μM) for 30 min, washed, and allowed to rest for 15 min to allow dye de-esterification, as described. For ROS imaging, cells were loaded with CellROX (ThermoFisher, 5 μM) for 30 min and then washed 3 times, per the manufacturer's recommendations. Individual wells were imaged as described (39). Time-lapse fluorescence intensity measurements were collected using ImageJ Time Series Analyzer plugin and data was analyzed and plotted using Origin Pro software. Final results represent a minimum of three independent experiments performed on separate days with new cultures (n>700 cells/treatment group). All conditions were run with controls on each experimental day.

CaMKII = type: cell-based; conditions: for phospho-CaMKII (CaMKII activation): independently of FSS
Procedure: (§2) Cells in culture were exposed to fluid flow using a custom FSS device (63). Cell media was removed and cells were rinsed in HEPES-buffered Ringer solution containing 140 mM NaCl, 4 mM KCl, 1 mM MgSO4, 5 mM NaHCO3, 10 mM glucose, 1.8 mM CaCl2 and 10 mM HEPES (pH 7.3). Ringer solution was also used as fluid flow buffer. For Calcium-free conditions, HEPES-buffered Manganese Ringer solution, containing 140 mM NaCl, 4 mM KCl, 1 mM MgSO4, 5 mM NaHCO3, 10 mM glucose, 2 mM MnCI and 10 mM HEPES (pH 7.3), was used, and cells were loaded with BATPA AM ester (10 μM, 30 min).

sclerostin [2] = assay: Immunoblotting for sclerostin / GAPDH in Ocy454 cells; type: cell-based, mouse; conditions: for sclerostin protein: independently of FSS
Procedure: as §2

Ocy454 cells [3] = assay: Ca2+ imaging (Fluo-4) of Ocy454 cells, with or without fluid shear stress; type: cell-based, mouse
Procedure: as §1

aged mice [4] = assay: Bone formation and bone mass (DEXA, microCT) in colchicine treated aged mice; type: in vivo
sclerostin [5] = assay: Bone derived sclerostin in colchicine treated aged mice; type: in vivo; conditions: aged mice (78 weeks), 1 mg/L colcrys in drinking water, 8 weeks
aged mice [6] = assay: White adipose tissue in colchicine treated aged mice
Ocy454 cells [7] = assay: Immunostaining for α-tubulin (microtubule network) in Ocy454 cells; conditions: α-tubulin immunofluorescence
aged mice [8] = assay: Muscle testing in colchicine treated aged mice; type: in vivo; conditions: 8 weeks colchicine
Procedure: Young and aged mice were treated with colchicine as per the bone formation study followed by euthanasia and muscle testing. After 8 weeks aged mice had increased muscle power.

Glu-tubulin [9] = assay: Glu-tubulin in ex vivo murine long bone (western blot); conditions: murine cortical bone ex vivo
Source text: The antibodies used were: sclerostin (R&D Sytems, AF1589), α-tubulin (Sigma, T9026), Glu-tubulin (Abcam, ab48389), phospho-CamK II Thr^286 (Cell Signaling Technologies, 12716S), total CaMKII (Cell Signaling Technologies, 11945S), and GAPDH (Millipore, MAB374).

Ocy454 cells [10] = assay: Atomic force microscopy nano-indentation of Ocy454 cells; type: cell-based, mouse; conditions: AFM nanoindentation, 2 h treatment
Procedure: Ocy454 cells were plated onto 22 mm×22 mm glass coverslips and allowed to grow for 16-24 h at 37° C., 5% CO2 with αMEM media. Thereafter, cells were washed with PBS before being incubated with pharmacological agents as indicated for 2 h at 37° C., 5% CO2 in αMEM. After each treatment, cells were transferred to 60 mm culture dishes with pre-warmed HEPES based media containing identical concentrations of the aforementioned agents. Cells were probed with an MFP-1D atomic force microscope (Asylum Research) using MLCT cantilevers (Bruker) with a nominal spring constant of k=0.01 N/m. The pull distance used was 2 μm with a tip velocity of 4 μm/s to generate ˜1-2 nN of force onto the cell corresponding to ˜1 μm indentation ensuring that the cytoskeleton was effectively being probed. The elastic moduli (stiffness) of the cells were calculated using the Sneddon Hertz model as described (66).

Glu-tubulin [11] = conditions: Ocy454 cells in vitro
Source text: The antibodies used were: a-tubulin (Sigma, T9026), Glu-tubulin (Abcam, ab48389) and TRPV4 (Abcam, ab39260).
Western blotting of whole cell extracts isolated from cells in culture following FSS or extracts isolated from murine long bone were done. Equal amounts of protein were loaded and electrophoresed on 10% SDS-PAGE gels and transferred to polyvinylidene difluoride membranes. Membranes were blocked in 5% non-fat dry milk (unless otherwise stated), probed with the indicated primary antibodies overnight and 4° C. Antibodies were detected with the appropriate horseradish peroxidase-conjugated secondary antibodies (Cell Signaling Technology) and enhanced chemiluminescence detection reagent (Biorad). […] Blots were acquired using an EpiChem gel documentation system (UVP Bioimaging Systems) and analyzed using ImageJ software.

[12] = whole body DEXA, 8 weeks colchicine
[13] = cells treated with H2O2, no FSS

**Q.** Which results are given for CC(C)C[C@H](NC(=O)c1cc2ccccc2s1)C(=O)N1CCN(C(=O)[C@H](CO)NS(=O)(=O)c2ccc(Cl)cc2Cl)CC1 [GSK-1016790A]?
**A.** ROS production (Ocy454 cells [1]): insufficient to induce; phospho-CaMKII (CaMKII activation) (CaMKII): activation; sclerostin protein (sclerostin [2]): reduction

**Q.** For OO [H2O2, Hydrogen peroxide], which “intracellular Ca2+” value (Ocy454 cells [3]; no FSS, Fluo-4) is on record?
**A.** stimulated

**Q.** What about the ROS production (Ocy454 cells [1]) of the same compound?
**A.** stimulated

**Q.** What about the “phospho-CaMKII (CaMKII activation)” value (CaMKII) of the same compound?
**A.** increased

**Q.** What about the sclerostin protein (sclerostin [2]) of the same compound?
**A.** reduced

**Q.** How did the “FSS-induced decrease in sclerostin protein” value (“FSS-induced decrease” below) (sclerostin [2]; 4 dynes/cm^2 FSS) turn out when COc1ccc(S(=O)(=O)N(CCO)c2ccccc2CN(C)C/C=C/c2ccc(Cl)cc2)cc1 [KN-93] was run?
**A.** prevented

**Q.** Which results are given for COc1cc2c(c(OC)c1OC)-c1ccc(OC)c(=O)cc1[C@@H](NC(C)=O)CC2 [colchicine]?
**A.** % Cells Responding to FSS, Ca2+ response (mechano-sensitivity) (Ocy454 cells [3]; 4 dynes/cm^2 FSS): decreased; Peak(ΔF/F) magnitude of Ca2+ response (mechano-responsiveness) (Ocy454 cells [3]; 4 dynes/cm^2 FSS): reducing; % Cells Responding to FSS, Ca2+ response (mechano-sensitivity) (Ocy454 cells [3]; 16 dynes/cm^2 FSS): decreased; Peak(ΔF/F) magnitude of Ca2+ response (mechano-responsiveness) (Ocy454 cells [3]; 16 dynes/cm^2 FSS): reducing; trabecular bone mass (aged mice [4]; 8 weeks colchicine): No changes were observed; bone accumulation (aged mice [4]; aged mice): increases; bone formation rate (BFR) on the cortical bone perimeter (aged mice [4]; aged mice (78 weeks), 1 mg/L colcrys in drinking water, 8 weeks): increased; also recorded: improved; cortical bone volume (aged mice [4]; microCT, 8 weeks colchicine): tended towards increases; polar mean moment of inertia (aged mice [4]; microCT, 8 weeks colchicine): tended towards increases; bone mineral content (BMC) (aged mice [4]; [12]): tended towards increases; bone mineral density (BMD) (aged mice [4]; [12]): tended towards increases; bone derived sclerostin (sclerostin [5]): decreased; also recorded: reduced; white adipose accumulation / fat mass in white adipose depots (aged mice [6]): reduced; adipocyte area (aged mice [6]; 8 weeks colchicine): 1441.64 μm^2; gonadal fat (aged mice [6]; 8 weeks colchicine): reduced; inguinal fat (aged mice [6]; 8 weeks colchicine): reduced; microtubule network density / structure (Ocy454 cells [7]): reduction; FSS-induced CaMKII phosphorylation (CaMKII; 4 dynes/cm^2 FSS): eliminated; maximum contraction velocity (aged mice [8]): increase; maximum muscle power (aged mice [8]): increase; also recorded: improved; muscle mass in the gastrocnemius muscle (aged mice [8]): did not increase; FSS-induced decrease in sclerostin protein (sclerostin [2]; 4 dynes/cm^2 FSS): eliminated

**Q.** How did the “% Cells Responding to FSS, Ca2+ response (mechano-sensitivity)” value (Ocy454 cells [3]; 4 dynes/cm^2 FSS) turn out when O=C(NC1(c2ccccc2)CC1)c1c(CN2CCC(N3CCCCC3)CC2)c(-c2cccc(C(F)(F)F)c2)nc2cc(Br)ccc12 [GSK2193874] was run?
**A.** statistically significant decrease

**Q.** What about the “Peak(ΔF/F) magnitude of Ca2+ response (mechano-responsiveness)” value (Ocy454 cells [3]; 4 dynes/cm^2 FSS) of the same compound?
**A.** statistically significant decrease

**Q.** What about the “H2O2-induced Ca2+ influx” value (Ocy454 cells [3]; [13]) of the same compound?
**A.** blunted

**Q.** What about the “H2O2-induced ROS” value (Ocy454 cells [1]; [13]) of the same compound?
**A.** without affecting

**Q.** And the “FSS-induced CaMKII phosphorylation” value (CaMKII; 4 dynes/cm^2 FSS)?
**A.** reduction

**Q.** And the “FSS-induced decrease” value (sclerostin [2]; 4 dynes/cm^2 FSS)?
**A.** blunted

**Q.** Which results are given for CC(=O)O[C@H]1C(=O)[C@@]2(C)[C@H]([C@H](OC(=O)c3ccccc3)[C@]3(O)C[C@H](OC(=O)[C@H](O)[C@@H](NC(=O)c4ccccc4)c4ccccc4)C(C)=C1C3(C)C)[C@]1(OC(C)=O)CO[C@@H]1C[C@@H]2O [Taxol]?
**A.** % Cells Responding to FSS, Ca2+ response (mechano-sensitivity) (Ocy454 cells [3]; 4 dynes/cm^2 FSS): statistically significant decrease; FSS-induced Ca2+ response (Ocy454 cells [3]; 4 dynes/cm^2 FSS): blunts; Peak(ΔF/F) magnitude of Ca2+ response (mechano-responsiveness) (Ocy454 cells [3]; 4 dynes/cm^2 FSS): decrease; % Cells Responding to FSS, Ca2+ response (mechano-sensitivity) (Ocy454 cells [3]; 16 dynes/cm^2 FSS): restored; Peak(ΔF/F) magnitude of Ca2+ response (mechano-responsiveness) (Ocy454 cells [3]; 16 dynes/cm^2 FSS): restored; amount of Glu-tubulin (Glu-tubulin [9]): markedly increased; microtubule network density / structure (Ocy454 cells [7]): increase in microtubule density; FSS-induced CaMKII phosphorylation (CaMKII; 4 dynes/cm^2 FSS): reduced; also recorded: blunts; FSS-induced CaMKII phosphorylation (CaMKII; 16 dynes/cm^2 FSS): restored; elastic modulus (cytoskeletal stiffness) (Ocy454 cells [10]): increased; FSS-induced decrease in sclerostin protein (sclerostin [2]; 4 dynes/cm^2 FSS): blunts; FSS-induced decrease in sclerostin protein (sclerostin [2]; 16 dynes/cm^2 FSS): restored; amount of Glu-tubulin (Glu-tubulin [11]): markedly increased; also recorded: marked increase

**Q.** With CC(=O)OCOC(=O)CN(CC(=O)OCOC(C)=O)c1ccccc1OCCOc1ccccc1N(CC(=O)OCOC(C)=O)CC(=O)OCOC(C)=O [BAPTA AM] as the compound, how does the “FSS-induced CaMKII phosphorylation” value (CaMKII; 4 dynes/cm^2 FSS) read?
**A.** inhibited

**Q.** What about the “FSS-induced decrease” value (sclerostin [2]; 4 dynes/cm^2 FSS) of the same compound?
**A.** inhibited

**Q.** With CC(=O)N[C@@H](CS)C(=O)O [NAC, N-acetylcysteine] as the compound, how does the “FSS-induced Ca2+ response” value (Ocy454 cells [3]; 4 dynes/cm^2 FSS) read?
**A.** abrogated

**Q.** What about the “FSS-induced Ca2+ response” value (Ocy454 cells [3]; 16 dynes/cm^2 FSS) of the same compound?
**A.** abrogated

**Q.** What about the “FSS-induced CaMKII phosphorylation” value (CaMKII; FSS, magnitude not stated) of the same compound?
**A.** reduction

**Q.** And the “FSS-induced decrease” value (sclerostin [2]; FSS, magnitude not stated)?
**A.** blunting
